{
  "source": "patent US7470683B2",
  "about": "“Tetracyclic compounds” (Les Laboratoires Servier, priority 2006, dated 2008)",
  "key": {"[1]": {"target": "T1, human dopamine D3 receptor (Homo sapiens, UniProt P35462)", "T1 construct": "expressed in transfected cells; membranes", "T1 sequence (P35462 whole entry)": "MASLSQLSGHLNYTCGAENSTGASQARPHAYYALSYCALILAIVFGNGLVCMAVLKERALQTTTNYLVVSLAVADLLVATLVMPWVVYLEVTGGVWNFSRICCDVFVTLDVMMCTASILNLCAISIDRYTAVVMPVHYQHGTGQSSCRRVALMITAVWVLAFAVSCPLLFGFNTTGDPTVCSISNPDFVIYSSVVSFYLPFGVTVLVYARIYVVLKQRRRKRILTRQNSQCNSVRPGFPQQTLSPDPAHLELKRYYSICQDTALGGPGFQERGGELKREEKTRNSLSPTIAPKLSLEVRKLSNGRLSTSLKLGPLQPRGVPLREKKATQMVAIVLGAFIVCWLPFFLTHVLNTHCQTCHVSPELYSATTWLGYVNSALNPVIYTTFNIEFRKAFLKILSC", "test": "Human D3 receptor binding study ([125I]-iodosulpride, CHO cell membranes)", "conditions": "[125I]-iodosulpride 0.2 nM, read-out: pKi hD3 (converted)", "method": "(§1) CHO (Chinese Hamster Ovary) cells are stably transfected with the gene encoding the human dopamine D2 or D3 receptor, in accordance with methods known from the literature. The native cells are deficient in the enzyme DHFR (DiHydroFolate Reductase). […] The transfections are carried out using Lipofectin (Gibco). The CHO cells co-transfected with the human D2 receptor and the phleomycin resistance gene are selected for their resistance to the presence of that antibiotic in the culture medium. The cells transfected with the human D3 receptor are selected, in a medium lacking hypoxanthine/thymidine, in the presence of methotrexate. The compositions of the culture media used are: for CHO-D2, DMEM (Dulbecco's Modified Eagle Medium) supplemented with 10% foetal calf serum and hypoxanthine/thymidine; and for CHO-D3, DMEM supplemented with 10% dialysed foetal calf serum. The cells are harvested at confluence and the membranes are then prepared.\nAfter a few minutes in the presence of 0.2% trypsin, the cells are collected and centrifuged at 2,000 g for 5 minutes. The cell mass, which is re-suspended in 10 mM Tris-HCl buffer pH 7.5 containing 5 mM MgSO4, is then homogenised using a Polytron®. […]\nThe concentration ranges of each compound include at least seven points determined in triplicate. […]"}, "[2]": {"target": "T2, human dopamine D2 receptor (Homo sapiens, UniProt P14416)", "T2 construct": "expressed in transfected cells; membranes", "T2 sequence (P14416 whole entry)": "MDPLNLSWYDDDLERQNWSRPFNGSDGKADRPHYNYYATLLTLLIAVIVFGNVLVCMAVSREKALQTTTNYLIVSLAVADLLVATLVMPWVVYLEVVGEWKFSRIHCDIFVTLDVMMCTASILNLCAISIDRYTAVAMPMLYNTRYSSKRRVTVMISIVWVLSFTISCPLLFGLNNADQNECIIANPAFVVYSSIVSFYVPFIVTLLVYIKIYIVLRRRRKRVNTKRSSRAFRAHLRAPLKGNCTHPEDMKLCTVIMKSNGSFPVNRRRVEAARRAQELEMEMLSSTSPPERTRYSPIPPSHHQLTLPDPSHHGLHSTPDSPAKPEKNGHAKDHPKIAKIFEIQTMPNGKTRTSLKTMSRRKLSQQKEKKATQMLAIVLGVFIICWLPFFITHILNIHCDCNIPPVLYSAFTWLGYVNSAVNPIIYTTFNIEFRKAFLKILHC", "test": "Human D2 receptor binding study ([125I]-iodosulpride, CHO cell membranes)", "conditions": "[125I]-iodosulpride 0.1 nM, read-out: pKi hD2 (converted)", "method": "as §1\nAfter a few minutes in the presence of 0.2% trypsin, the cells are collected and centrifuged at 2,000 g for 5 minutes. The cell mass, which is re-suspended in 10 mM Tris-HCl buffer pH 7.5 containing 5 mM MgSO4, is then homogenised using a Polytron®. The homogenate is then centrifuged at 50,000 g for 15 minutes, and the sediment is re-suspended by gentle sonication in an incubation buffer having the composition: 50 mM Tris-HCl pH 7.5 containing 120 mM NaCl, 5 mM KCl, 2 mM CaCl2, 5 mM MgCl2. The membranes are then divided into aliquots and stored at −80° C. until the day of the experiment.\nThe concentration ranges of each compound include at least seven points determined in triplicate. Each experiment is repeated at least twice.\nThe incubation, which lasts for thirty minutes at 30° C., is terminated by rapid filtering through a Brandle apparatus, followed by three consecutive rinsings with Tris-HCl buffer pH 7.4 containing 120 mM NaCl. The filters are collected and then subjected to counting using a gamma counter.\nThe results are expressed in the form of pKi (pKi=−logKi)."}, "[3]": {"tested_on": "rats having a unilateral lesion of the Substantia nigra", "test": "Rotations induced by dopaminergic agonists in rats having a unilateral 6-OH-DA lesion of the Substantia nigra", "assay_type": "in vivo, rat", "conditions": "for Contralateral rotations mean ± s.e.m.: recorded for one hour, carrier 53.8 ± 12.8"}, "rat [4]": {"tested_on": "rat", "test": "Ultrasonic vocalisation test in the rat (anxiolytic properties)", "assay_type": "in vivo", "conditions": "for Duration of ultrasonic vocalisations (s) mean ± s.e.m.: ten-minute recording, carrier 254.3 ± 42.1", "excerpt": "When a rat is placed in an environment previously associated with an unpleasant experience (electric shocks to the paws), its anxiety is shown by the emission of inaudible cries (or ultrasonic vocalisations).\nStandard boxes (Coulbourn Instruments), placed in sound-attenuating ventilated enclosures, are provided with a floor composed of electrifiable metal bars (shock generator and scrambler, Med Associates Inc) and with a microphone located in the centre of the ceiling. The ultrasounds are converted into an audible range (bat detector, Buitenbedrijf). The signals modified in that manner are filtered and then processed (RTS software, Engineering Design). The spectrograms obtained are recorded on DAT tapes.\nMale rats of the Wistar strain, weighing 180-200 g on their arrival, are housed in cages of four with free access to food and water, from five days before the start of the study until its end. The procedure employed is divided up into three successive stages separated by 24 hours and called training, selection and test. During the training session, the animals are placed singly in the boxes, where they receive six electric shocks (0.8 mA, 8 s) randomly spaced over a period of seven minutes. Selection comprises placing each animal in a box for two minutes, where they receive a single shock, and putting them back in the box thirty minutes later for a ten-minute session of recording the ultrasonic vocalisations; those animals whose vocalisations last less than 90 seconds are excluded from the remainder of the experiment. The test phase proceeds in a similar manner to the selection stage, with the products or the carrier additionally being administered at the end of the two-minute session. The effect of the products is statistically evaluated by analysis of variance over repeated measurements, followed by a Dunnett's test for comparison of the effects of different doses with the effect of the carrier (distilled water)."}, "rat [5]": {"tested_on": "rat", "test": "Forced swimming test in the rat (antidepressive properties)", "assay_type": "in vivo", "conditions": "for Immobility (sec) mean ± s.e.m.: 30 min before 5-min test, carrier 174.3 ± 9.1", "excerpt": "The forced swimming test (Porsolt R. et al, Eur. J. Pharmacol., 1978, 47, 379-91) is a behavioural test which comprises inducing a state of “despair” in the rat, by placing the naive animal in an enclosure full of water, from which it cannot escape, for a period of fifteen minutes. For the first five to ten minutes, the rat struggles vigorously but finally adopts an immobile posture during the last part of the test. Placed in the same enclosure on the following day, the animal remains immobile for most of the test (5 minutes' duration). Antidepressants reduce the duration of immobility of the rat during the test.\nThe experiment is carried out over two days, with a 24-hour interval, on rats having an average weight of 170 g, housed the day before in individual cages, with free access to food and drink.\nOn the first day, each rat is placed for fifteen minutes in a glass cylinder (20 cm diameter×40 cm high) filled to a height of 15 cm with water maintained at 25° C. On the second day, the animal is again placed in a cylinder for a period of five minutes; the total period of immobility (in seconds) of the rat is measured. The product or the solvent is administered to the animal thirty minutes before the beginning of the test. The effect of the products is statistically evaluated by analysis of variance over repeated measurements, followed by a Dunnett's test for comparison of the effects of different doses with the effect of the carrier (distilled water)."}, "[6]": {"tested_on": "presynaptic dopaminergic autoreceptor", "test": "Presynaptic dopaminergic autoreceptor activation: unitary extracellular electrical activity in the ventral tegmentum area of the rat", "assay_type": "in vivo", "conditions": "cumulative doses, relative to basal activity = 100%, mean ± s.e.m., n = 5", "method": "Test Recording the Unitary Extracellular Electrical Activity in the Ventral Tegmentum Area of the Rat\nAdministration of a dopaminergic agonist decreases neuron discharge frequency in dose-dependent manner. This effect is reversed by haloperidol, a dopaminergic antagonist.\nThe rats are anaesthetised using chloral hydrate (400 mg/kg, i.p.) and placed in a stereotactic apparatus (Unimécanique, France) after catheterisation of the femoral vein. The level of anaesthesia is maintained by i.p. administration of chloral hydrate every hour; rectal temperature is held at 37±1° C. by means of a thermostatically controlled heated blanket. A tungsten microelectrode (10 MΩ, 1 μm) is advanced, using an electronic microdrive (Unimécanique, France), into the ventral tegmentum area (AP: −5.5/bregma; L: 0.7; H: 7.0-8.5/dura; Paxinos and Watson atlas, 1986). The potentials of dopaminergic cells are recognised by their morphology (triphasic potentials +/−/+, of a duration greater than 3 msec), their discharge rhythm, whether regular or in bursts of decreasing amplitude, and their discharge frequency, which is from 2 to 8 Hz. A single cell per animal is used for recording.\nAfter a period ≧5 minutes (basal activity) and an initial injection of carrier (distilled water to which a few drops of dilute lactic acid have been added; pH adjusted to 5 using 1N NaOH), the products of the invention are administered intravenously in cumulatively increasing doses at intervals of 2-3 minutes.\nData acquisition is performed by the Spike2 software package (Cambridge Electronic Design, England). The discharge frequency is measured over one minute at the maximum change between each injection and is expressed as the percentage change with respect to the basal activity (averaged over the 5 minutes preceding the first treatment), which is defined as 100%. The effect of the products is statistically evaluated by analysis of variance over repeated measurements, followed by a Dunnett's test for comparison of the effects of different doses with the effect of the carrier (distilled water)."}},
  "data": [
    {"smiles": "CCCN1CCO[C@@H]2c3cc4c(cc3CC[C@H]21)CCOC4=O", "note": "[Example 5, (4aR,12bR)-4-Propyl-3,4,4a,5,6,8,9,12b-octahydro-2H,11H-pyrano-[4′,3′:6,7]naphtho[1,2-b][1,4]oxazin-11-one]", "values": [
      {"measurement": "Ki", "setting": "[1]", "value": 126, "unit": "nM"},
      {"measurement": "Ki", "setting": "[2]", "value": 1580, "unit": "nM"}
    ]},
    {"smiles": "CN1CCc2cccc3c2[C@H]1Cc1ccc(O)c(O)c1-3", "note": "[Apomorphine, apomorphine, reference compound]", "values": [
      {"measurement": "Contralateral rotations mean ± s.e.m.", "setting": "[3]; 0.02 mg/kg s.c.", "value": "497.2 ± 91.4"}
    ]},
    {"smiles": "CCCN1CCO[C@@H]2c3cc4c(=O)[nH]ccc4cc3CC[C@H]21", "note": "[Example 8, (4aR,12bR)-4-Propyl-2,3,4,4a,5,6,10,12b-octahydro-11H-isoquino-[6,7-h][1,4]benzoxazin-11-one]", "values": [
      {"measurement": "Ki", "setting": "[2]", "value": 1260, "unit": "nM"}
    ]},
    {"smiles": "CCCN1CCO[C@@H]2c3cc4c(cc3CC[C@H]21)CCNC4=O", "note": "[Example 6, (4aR,12bR)-4-Propyl-2,3,4,4a,5,6,8,9,10,12b-decahydro-11H-isoquino-[6,7-h][1,4]benzoxazin-11-one]", "values": [
      {"measurement": "Ki", "setting": "[2]", "value": 794, "unit": "nM"}
    ]},
    {"smiles": "CCCN1CCO[C@@H]2c3cc4c(cc3CC[C@H]21)CNC4=O", "note": "(single isomer, unassigned) [Example 2]", "values": [
      {"measurement": "Duration of ultrasonic vocalisations (s) mean ± s.e.m.", "setting": "rat [4]; 0.0025 mg/kg s.c.", "value": "274.0 ± 59.0", "unit": "s"},
      {"measurement": "Duration of ultrasonic vocalisations (s) mean ± s.e.m.", "setting": "rat [4]; 0.04 mg/kg s.c.", "value": "28.0 ± 5.6", "unit": "s"},
      {"measurement": "Duration of ultrasonic vocalisations (s) mean ± s.e.m.", "setting": "rat [4]; 0.63 mg/kg s.c.", "value": "22.0 ± 3.2", "unit": "s"},
      {"measurement": "Effect on duration of vocalisations (in words)", "setting": "rat [4]; doses of 0.04 and 0.63 mg/kg s.c.", "value": "substantial reduction in the duration of vocalisations"},
      {"measurement": "Immobility (sec) mean ± s.e.m.", "setting": "rat [5]; 0.02 mg/kg s.c.", "value": "159.4 ± 7.9", "unit": "s"},
      {"measurement": "Immobility (sec) mean ± s.e.m.", "setting": "rat [5]; 0.04 mg/kg s.c.", "value": "122.7 ± 21.2", "unit": "s"},
      {"measurement": "Immobility (sec) mean ± s.e.m.", "setting": "rat [5]; 0.08 mg/kg s.c.", "value": "22.03 ± 5.8", "unit": "s"},
      {"measurement": "Effect on period of immobility (in words)", "setting": "rat [5]; s.c., rat", "value": "reduces the period of immobility of the animal in dose-dependent manner"},
      {"measurement": "Contralateral rotations mean ± s.e.m.", "setting": "[3]; 0.00063 mg/kg s.c.", "value": "157.4 ± 32.1"},
      {"measurement": "Contralateral rotations mean ± s.e.m.", "setting": "[3]; 0.0025 mg/kg s.c.", "value": "337.3 ± 48.3"},
      {"measurement": "Contralateral rotations mean ± s.e.m.", "setting": "[3]; 0.01 mg/kg s.c.", "value": "553.8 ± 138.3"},
      {"measurement": "Dose from which the product is active in the rotation test", "setting": "[3]; s.c.", "value": "≥ 2.5", "unit": "µg/kg"},
      {"measurement": "Neuron discharge frequency", "setting": "[6]; 0.125 μg/kg i.v.", "value": "91.8 ± 5.2", "unit": "%"},
      {"measurement": "Neuron discharge frequency", "setting": "[6]; 0.25 μg/kg i.v.", "value": "79.9 ± 5.9", "unit": "%"},
      {"measurement": "Neuron discharge frequency", "setting": "[6]; 0.5 μg/kg i.v.", "value": "66.3 ± 5.9", "unit": "%"},
      {"measurement": "Neuron discharge frequency", "setting": "[6]; 1.0 μg/kg i.v.", "value": "42.0 ± 7.3", "unit": "%"},
      {"measurement": "Neuron discharge frequency", "setting": "[6]; 2.0 μg/kg i.v.", "value": "10.8 ± 8.7", "unit": "%"},
      {"measurement": "Neuron discharge frequency", "setting": "[6]; 4.0 μg/kg i.v.", "value": "2.3 ± 2.3", "unit": "%"},
      {"measurement": "Neuron discharge frequency", "setting": "[6]; 8.0 μg/kg i.v.", "value": "0.0 ± 0.0", "unit": "%"}
    ]},
    {"smiles": "CCCN1CCO[C@@H]2c3cc4c(cc3CC[C@H]21)COC4=O", "note": "[Example 4, (4aR,11bR)-4-Propyl-2,3,4,4a,5,6,8,11b-octahydro-10H-furo[3′,4′:6,7]-naphtho[1,2-b][1,4]oxazin-10-one]", "values": [
      {"measurement": "Ki", "setting": "[2]", "value": 2000, "unit": "nM"}
    ]}
  ]
}
